{
  "source": "patent US7935482B2",
  "about": "“Gene expression profiling for identification monitoring and treatment of rheumatoid arthritis” (Source Precision Medicine, Inc., priority 2005, dated 2011)",
  "key": {"[1]": {"test_system": "Inflammation Gene Expression Panel (inflammation index)", "test": "Inflammation index from whole-blood Gene Expression Profile of RA patients under therapy", "format": "in vivo, human", "settings": "for inflammation index compared to normal: clinically stable RA patients, 10 per treatment group, FIGS. 9-11, Remicade: all but one of the patients", "excerpt": "The values Ci and P(i) may be determined in a number of ways, so that the index I is informative of the pertinent biological condition. One way is to apply statistical techniques, such as latent class modeling, to the profile data sets to correlate clinical data or experimentally derived data, or other data pertinent to the biological condition. In this connection, for example, may be employed the software from Statistical Innovations, Belmont, Mass., called Latent Gold®. Alternatively, other simpler modeling techniques may be employed in a manner known in the art. The index function for inflammation may be constructed, for example, in a manner that a greater degree of inflammation (as determined by the profile data set for the Inflammation Gene Expression Panel included in Tables 1 and 2) correlates with a large value of the index function. In a simple embodiment, therefore, each P(i) may be +1 or −1, depending on whether the constituent increases or decreases with increasing inflammation. As discussed in further detail below, a meaningful inflammation index that is proportional to the expression, referred to herein as IR-105, was constructed as follows: ¼{IL1A}+¼{IL1B}+¼{TNF}+¼{INFG}[…],\nFIG. 4A further illustrates the consistency of inflammatory gene expression, illustrated here with respect to 7 loci of (of the Inflammation Gene Expression Panel included in Tables 1 and 2), in a set of 44 normal, undiagnosed blood donors. For each individual locus is shown the range of values lying within ±2 standard deviations of the mean expression value, which corresponds to 95% of a normally distributed population. Notwithstanding the great width of the confidence interval (95%), the measured gene expression value (ΔCt)—remarkably—still lies within 10% of the mean, regardless of the expression level involved. As described in further detail below, for a given biological condition an index can be constructed to provide a measurement of the condition. This is possible as a result of the conjunction of two circumstances: (i) there is a remarkable consistency of Gene Expression Profiles with respect to a biological condition across a population and (ii) there can be employed procedures that provide substantially reproducible measurement of constituents in a Gene Expression Panel giving rise to a Gene Expression Profile, under measurement conditions wherein specificity and efficiencies of amplification for all constituents of the panel are substantially similar and which therefore provides a measurement of a biological condition. Accordingly, a function of the expression values of representative constituent loci of FIG. 4A is here used to generate an inflammation index value, which is normalized so that a reading of 1 corresponds to constituent expression values of healthy subjects, as shown in the right-hand portion of FIG. 4A.\nFIG. 4C illustrates the use of the same index as FIG. 4B, where the inflammation median for a normal population of subjects has been set to zero and both normal and diseased subjects are plotted in standard deviation units relative to that median. An inflammation index value was determined for each member of a normal, undiagnosed population of 70 individuals (black bars). The resulting distribution of index values, shown in FIG. 4C, can be seen to approximate closely a normal distribution. Similarly, index values were calculated for individuals from two diseased population groups, (1) rheumatoid arthritis patients treated with methotrexate (MTX) who are about to change therapy to more efficacious drugs (e.g., TNF inhibitors)(hatched bars), and (2) rheumatoid arthritis patients treated with disease modifying anti-rheumatoid drugs (DMARDS) other than MTX, who are about to change therapy to more efficacious drugs (e.g., MTX). […] This figure thus illustrates the utility of an index to derived from Gene Expression Profile data to evaluate disease status and to provide an objective and quantifiable treatment objective. […]"}, "[2]": {"test": "Clinical assessment of RA patients during therapy (DAS, SJC, TJ, MDAD, HAQ)", "format": "in vivo, human", "settings": "22 RA patients pooled over both regimens, FIG. 23; for Disease Activity Score (DAS): baseline 6.51"}, "[3]": {"test_system": "Inflammation Gene Expression Panel", "test": "Quantitative RT-PCR gene expression in whole blood of treated RA patients relative to normal mean", "format": "in vivo, human", "settings": "22 patients pooled", "excerpt": "For measuring the amount of a particular RNA in a sample, methods known to one of ordinary skill in the art were used to extract and quantify transcribed RNA from a sample with respect to a constituent of a Gene Expression Panel. (See detailed protocols below. Also see PCT application publication number WO 98/24935 herein incorporated by reference for RNA analysis protocols). Briefly, RNA is extracted from a sample such as a tissue, body fluid, or culture medium in which a population of cells of a subject might be growing. For example, cells may be lysed and RNA eluted in a suitable solution in which to conduct a DNAse reaction. First strand synthesis may be performed using a reverse transcriptase. Gene amplification, more specifically quantitative PCR assays, can then be conducted and the gene of interest calibrated against an internal marker such as 18S rRNA (Hirayama et al., Blood 92, 1998: 46-52). Any other endogenous marker can be used, such as 28S-25S rRNA and 5S rRNA. Samples are measured in multiple replicates, for example, 3 replicates. In an embodiment of the invention, quantitative PCR is performed using amplification, reporting agents and instruments such as those supplied commercially by Applied Biosystems (Foster City, Calif.). Given a defined efficiency of amplification of target transcripts, the point (e.g., cycle number) that signal from amplified target template is detectable may be directly related to the amount of specific message transcript in the measured sample. Similarly, other quantifiable signals such as fluorescence, enzyme activity, disintegrations per minute, absorbance, etc., when correlated to a known concentration of target templates (e.g., a reference standard curve) or normalized to a standard with limited variability can be used to quantify the number of target templates in an unknown sample.\nAs part of a larger international study involving patients with rheumatoid arthritis, the subject was followed over a twelve-week period. The subject was enrolled in the study because of a failure to respond to conservative drug therapy for rheumatoid arthritis and a plan to change therapy and begin immediate treatment with a TNF-inhibiting compound. Blood was drawn from the subject prior to initiation of new therapy (visit 1). After initiation of new TNF-inhibiting therapy, blood was drawn at 4 weeks post change in therapy (visit 2), 8 weeks (visit 3), and 12 weeks (visit 4) following the start of new therapy. Blood was collected using the PAXgene Blood RNA System™, held at room temperature for two hours and then frozen at −30° C.\nFrozen samples were shipped to the central laboratory at Source Precision Medicine, the assignee herein, in Boulder, Colo. for determination of expression levels of genes in the 48-gene inflammation gene expression panel included in Tables 1 and 2. The blood samples were thawed and RNA extracted according to the manufacturer's recommended procedure. RNA was converted to cDNA and the level of expression of the 48 inflammatory genes was determined. Expression results are shown for 11 of the 48 loci in FIG. 3. […] Similarly, gene expression levels at each of the subsequent physician visits for each locus are compared to the same normal average value. […] In each visit following the change in the therapy, the level of inflammatory gene expression for 10 of the 11 loci is closer to the cognate locus average previously determined for the normal (i.e., undiagnosed, healthy) patient set. […]"}, "[4]": {"settings": "human, in vivo; cited from earlier work"}, "[5]": {"settings": "end of the study, 12 genes examined, FIG. 17"}},
  "data": [
    {"compound": "etanercept [Enbrel]", "values": [
      {"measurement": "patients with inflammation index in the normal range", "setting": "[1]; 10 clinically stable RA patients, FIG. 10", "result": 80, "unit": "%"},
      {"measurement": "inflammation index compared to normal", "setting": "[1]", "result": "comes much closer to normal"}
    ]},
    {"compound": "anakinra [kineret]", "values": [
      {"measurement": "joint counts, MD assessment and patient self-score over the course of the study", "setting": "[2]", "result": "all went down"},
      {"measurement": "Disease Activity Score (DAS)", "setting": "[2]; after 4 weeks", "result": 5.35},
      {"measurement": "Disease Activity Score (DAS)", "setting": "[2]; end of the study", "result": 4.88},
      {"measurement": "number of genes still over-expressed to some extent", "setting": "[3]; [5]", "result": 7},
      {"measurement": "number of genes transitioned to the under-expressed category", "setting": "[3]; [5]", "result": 4},
      {"measurement": "expression of PTGS2 (COX2) versus normal", "setting": "[3]; end of the study, FIG. 17", "result": "not statistically significantly different from normal"},
      {"measurement": "values of CD19 expression versus normals", "setting": "[3]; from the start of the study until the end, FIG. 17", "result": "all under-expressed"},
      {"measurement": "relative expression of the genes overexpressed at start (11 of 12 genes) versus normals", "setting": "[3]; week 4, normals n=69, FIG. 17", "result": "still over-expressed at week 4 but less so"}
    ]},
    {"compound": "CN(Cc1cnc2nc(N)nc(N)c2n1)c1ccc(C(=O)N[C@@H](CCC(=O)O)C(=O)O)cc1", "note": "[methotrexate]", "values": [
      {"measurement": "distribution of inflammation index values in comparison to the normal distribution", "setting": "[1]; RA patients about to change therapy to more efficacious drugs, FIG. 4C", "result": "skewed upward"},
      {"measurement": "inflammation index compared to normal", "setting": "[1]", "result": "elevated compared to normal"}
    ]},
    {"compound": "infliximab [Remicade]", "values": [
      {"measurement": "abnormally low inflammation index in two of the patients", "setting": "[1]; 10 clinically stable RA patients, FIG. 11", "result": "suggesting an immunosuppressive response"},
      {"measurement": "inflammation index compared to normal", "setting": "[1]", "result": "at or below normal"},
      {"measurement": "association with serious infections", "setting": "[4]", "result": "associated with serious infections in some subjects"}
    ]}
  ]
}
